{"source": "patent US20250368678A1", "about": "“19-NOR-C3,3-DISUBSTITUTED C21-AZACYCLO-S[…] AND METHOD FOR USING SAME” (SHANDONG LUYE PHARMACEUTICAL CO., LTD., priority 2022, published 2025)", "type_in_all_cases": "in vivo", "key": {"[1]": {"system": "SD rats", "assay": "Loss of righting reflex in SD rats, intragastric administration", "conditions": "for rate of loss of righting reflex: within 4 h", "description": "To determine the threshold for the loss of righting reflex in SD rats after intragastric administration of compound 41 in order to evaluate the sedative effect and therapeutic safety window of compound 41.\nMale SD rats weighing 180-200 g, as experimental animals, were acclimatized for 7 days after arriving at the animal facility and were randomly divided into groups based on weight one day before experimentation. The rats were fasted overnight before experimentation but had access to water. Doses of compound 41 were designed in a 0.8-fold gradient, and the doses were set at 39 mg/kg, 31.25 mg/kg, 25 mg/kg, 20 mg/kg, and 16 mg/kg, with 10 rats in each group. Observations were made on the loss of righting reflex within 4 h of intragastrically administering the compound to the rats."}, "[2]": {"system": "SD rats", "assay": "Loss of righting reflex in SD rats, intraperitoneal injection", "conditions": "for rate of loss of righting reflex: within 4 h", "description": "To determine the threshold for the loss of righting reflex in SD rats after injection of compound 41 in order to evaluate the sedative effect and therapeutic safety window of the compound.\nMale SD rats weighing 180-200 g, as test animals, were acclimatized for 7 days after arriving at the animal facility and were randomly divided into groups based on weight one day before testing. The rats were fasted for half a day before testing but had access to water. Doses of compound 41 were designed in a 0.8-fold gradient, and the doses were set at 23.5 mg/kg, 18.8 mg/kg, 15 mg/kg, 12 mg/kg, and 9.6 mg/kg. Observations were made on the loss of righting reflex within 4 h of intraperitoneally injecting compound 41 into the rats."}, "[3]": {"system": "SD rats", "assay": "Anticonvulsant effect, pentylenetetrazol (PTZ)-induced epileptic convulsion SD rat model", "procedure": "To establish an epileptic convulsion SD rat animal model by intraperitoneally injecting 50 mg/kg of pentylenetetrazol (PTZ) into SD rats, and evaluate the anticonvulsant effect of compound 41.\nMale SD rats weighing 300±10 g, as test animals, were acclimatized for 7 days after arriving at the animal facility and were randomly divided into groups based on weight one day before administration. The rats were fasted for half a day before testing but had access to water. During the test, compound 41 was orally administered to the animals at 3.5 mg/kg in advance. Two hours after the oral administration, a PTZ solution was intraperitoneally injected at 50 mg/kg. Observations were made on the rats' epileptic convulsion behavior within 1 h of performing PTZ induction. The latency period of clonic convulsion and the latency period of tonic-clonic behavior were measured.\nBehavioral raw data are finally expressed as mean±standard error (Mean S.E.M.) and statistically analyzed using One-way ANOVA Dunnett post hoc. P<0.05 indicates the presence of a significant difference, P<0.01 indicates the presence of a very significant difference, and P<0.001 indicates the presence of an extremely significant difference."}, "[4]": {"assay": "Pharmacokinetic study in SD rats (plasma and brain)", "procedure": "Male SD rats weighing about 250 g were randomly divided into groups of 3.\nThe intravenous dose was 6.1 mol/kg, and the intragastric dose was 24.4 μmol/kg. Animals were fasted for 12 h before administration, with free access to water, and were fed together 3 h post-administration. Blood samples of about 0.3 mL were collected at 5 min (intravenous), 15 min, 30 min, 1 h, 2 h, 3 h, 4 h, 6 h, 8 h, 12 h, and 24 h post-administration into heparinized EP tubes and centrifuged at 13,500 rpm for 10 min to separate the plasma. Rat brain tissue samples were collected after cardiac perfusion at 30 min, 2 h, and 6 h. After pretreatment, the samples were analyzed by LC-MS/MS to determine the concentration of the test compound in the plasma and brain, and pharmacokinetic parameters were calculated."}, "[5]": {"conditions": "3.5 mg/kg oral 2 h before PTZ 50 mg/kg i.p., observed 1 h, P<0.001 vs solvent control"}, "[6]": {"conditions": "male, rat, 6.1 umol/kg, IV 6.1 μmol/kg, plasma"}, "[7]": {"conditions": "male, rat, plasma, 6.1 umol/kg, IV 6.1 μmol/kg"}, "[8]": {"conditions": "male, rat, plasma, po, 24.4 umol/kg, IG 24.4 μmol/kg"}, "[9]": {"conditions": "male, rat, po, 24.4 umol/kg, IG 24.4 μmol/kg, plasma"}}}
{"smiles": "C[C@@]1(O)CC[C@H]2[C@H](CC[C@@H]3[C@@H]2CC[C@]2(C)[C@@H](C(=O)Cn4cnn(-c5cc(F)nc(F)c5)c4=O)CC[C@@H]32)C1", "note": "[Compound 41]", "values": [{"measurement": "rate of loss of righting reflex", "setting": "[1]; 16 mg/kg intragastric, SD rats", "result": 0, "unit": "%"}, {"measurement": "rate of loss of righting reflex", "setting": "[1]; 20 mg/kg intragastric, SD rats", "result": 0, "unit": "%"}, {"measurement": "rate of loss of righting reflex", "setting": "[1]; 25 mg/kg intragastric, SD rats", "result": 50, "unit": "%"}, {"measurement": "rate of loss of righting reflex", "setting": "[1]; 31.25 mg/kg intragastric, SD rats", "result": 90, "unit": "%"}, {"measurement": "rate of loss of righting reflex", "setting": "[1]; 39 mg/kg intragastric, SD rats", "result": 100, "unit": "%"}, {"measurement": "threshold for loss of righting reflex relative to effective dose for the antiepileptic convulsion effect", "setting": "[1]; intragastric, 20 mg/kg vs 3.5 mg/kg, rats", "result": 5.7, "unit": "times"}, {"measurement": "therapeutic safety window (in words)", "setting": "[1]; intragastric, SD rats", "result": "relatively wide"}, {"measurement": "threshold dose for the loss of righting reflex", "setting": "[1]; intragastrically administered, SD rats", "result": 20, "unit": "mg/kg"}, {"measurement": "rate of loss of righting reflex", "setting": "[2]; 9.6 mg/kg intraperitoneal", "result": 0}, {"measurement": "rate of loss of righting reflex", "setting": "[2]; 12 mg/kg intraperitoneal", "result": 0}, {"measurement": "rate of loss of righting reflex", "setting": "[2]; 15 mg/kg intraperitoneal", "result": 30, "unit": "%"}, {"measurement": "rate of loss of righting reflex", "setting": "[2]; 18.8 mg/kg intraperitoneal", "result": 50, "unit": "%"}, {"measurement": "rate of loss of righting reflex", "setting": "[2]; 23.5 mg/kg intraperitoneal", "result": 80, "unit": "%"}, {"measurement": "therapeutic safety window (in words)", "setting": "[2]; intraperitoneal", "result": "relatively wide"}, {"measurement": "threshold dose for the loss of righting reflex", "setting": "[2]; intraperitoneally injected", "result": 12, "unit": "mg/kg"}, {"measurement": "latency period of clonic convulsion behavior", "setting": "[3]; [5]", "result": "2764.6 ± 1330.9", "unit": "s"}, {"measurement": "latency period of tonic-clonic behavior", "setting": "[3]; [5]", "result": "3600 ± 0", "unit": "s"}, {"measurement": "effective dose for the antiepileptic convulsion effect", "setting": "[3]; oral, PTZ model", "result": 3.5, "unit": "mg/kg"}, {"measurement": "brain penetration capability (in words)", "setting": "[4]; IG 24.4 μmol/kg", "result": "strong"}, {"measurement": "Brain concentration", "setting": "[4]; IG 24.4 μmol/kg, 30 min", "result": "2565 ± 452", "unit": "nmol/kg"}, {"measurement": "Brain concentration", "setting": "[4]; IG 24.4 μmol/kg, 2 h", "result": "4533 ± 720", "unit": "nmol/kg"}, {"measurement": "Brain concentration", "setting": "[4]; IG 24.4 μmol/kg, 6 h", "result": "2692 ± 259", "unit": "nmol/kg"}, {"measurement": "AUC(0-inf)", "setting": "[4]; [6]", "result": "10.1 ± 2.38", "unit": "µM·h"}, {"measurement": "AUC(0-t)", "setting": "[4]; [6]", "result": "9.71 ± 2.26", "unit": "µM·h"}, {"measurement": "C0", "setting": "[4]; [6]", "result": "2.11 ± 0.537", "unit": "µM"}, {"measurement": "Kp at 30 min", "setting": "[4]; male, rat, brain/plasma, oral, IG 24.4 μmol/kg, 30 min, read-out: Brain-to-blood ratio", "result": 0.8}, {"measurement": "Kp at 2 h", "setting": "[4]; male, rat, brain/plasma, oral, IG 24.4 μmol/kg, 2 h, read-out: Brain-to-blood ratio", "result": 1.2}, {"measurement": "Kp at 6 h", "setting": "[4]; male, rat, brain/plasma, oral, IG 24.4 μmol/kg, 6 h, read-out: Brain-to-blood ratio", "result": 1.8}, {"measurement": "MRT last", "setting": "[4]; [7]", "result": "6.3 ± 0.83", "unit": "h"}, {"measurement": "half-life", "setting": "[4]; [7]", "result": "5.17 ± 0.55", "unit": "h"}, {"measurement": "bioavailability", "setting": "[4]; male, rat, plasma, oral, IG 24.4 μmol/kg vs IV 6.1 μmol/kg, read-out: F (absolute bioavailability)", "result": 84, "unit": "%"}, {"measurement": "concentration at 30 min", "setting": "[4]; male, rat, plasma, oral, IG 24.4 μmol/kg, 30 min", "result": "3.2 ± 1.16", "unit": "µM"}, {"measurement": "concentration at 2 h", "setting": "[4]; male, rat, plasma, oral, IG 24.4 μmol/kg, 2 h", "result": "3.81 ± 0.67", "unit": "µM"}, {"measurement": "concentration at 6 h", "setting": "[4]; male, rat, plasma, oral, IG 24.4 μmol/kg, 6 h", "result": "1.48 ± 0.261", "unit": "µM"}, {"measurement": "MRT last", "setting": "[4]; [8]", "result": "7.61 ± 0.6", "unit": "h"}, {"measurement": "Tmax", "setting": "[4]; [8]", "result": "1.67 ± 0.58", "unit": "h"}, {"measurement": "half-life", "setting": "[4]; [8]", "result": "6.11 ± 1.44", "unit": "h"}, {"measurement": "AUC(0-inf)", "setting": "[4]; [9]", "result": "35.1 ± 7.03", "unit": "µM·h"}, {"measurement": "AUC(0-t)", "setting": "[4]; [9]", "result": "32.5 ± 5.2", "unit": "µM·h"}, {"measurement": "Cmax", "setting": "[4]; [9]", "result": "3.28 ± 0.324", "unit": "µM"}]}
